Test system: MV-4-11 cells
Assay: Gene expression microarray analysis (Affymetrix PrimeView) and GSEA
Assay type: cell-based, human
Set-up: RFU PODN (11730768_x_at) / Fold change /veh PODN (11730768_x_at) / RFU LINC00158 (11744669_a_at) / Fold change /veh LINC00158 (11744669_a_at) / RFU DUSP10 (11751237_a_at) / Fold change /veh DUSP10 (11751237_a_at) / RFU ID3 (11757404_x_at) / Fold change /veh ID3 (11757404_x_at) / RFU PLEKHG5 (11737974_s_at) / Fold change /veh PLEKHG5 (11737974_s_at) / RFU LRRC4B (11730491_at) / Fold change /veh LRRC4B (11730491_at) / RFU GIMAP4 (11747438_a_at) / Fold change /veh GIMAP4 (11747438_a_at) / RFU KRT8 (11758183_x_at) / Fold change /veh KRT8 (11758183_x_at) / RFU CNN1 (11734310_a_at) / Fold change /veh CNN1 (11734310_a_at) / RFU VPS37D (11726825_at) / Fold change /veh VPS37D (11726825_at) / RFU C10orf10 (11716522_x_at) / Fold change /veh C10orf10 (11716522_x_at) / RFU KIR2DL2 /// KIR2DL4 /// KIR2DL5A /// KIR2DL5B /// KIR2DS1 /// KIR2DS2 /// KIR2DS3 /// KIR2DS4 /// KIR3DL3 /// KIR3DL3 /// KIR3DS1 (11738374_at) / Fold change /veh KIR2DL2 /// KIR2DL4 /// KIR2DL5A /// KIR2DL5B /// KIR2DS1 /// KIR2DS2 /// KIR2DS3 /// KIR2DS4 /// KIR3DL3 /// KIR3DL3 /// KIR3DS1 (11738374_at) / RFU C1QL1 (11718748_at) / Fold change /veh C1QL1 (11718748_at) / RFU TMPRSS4 (11747572_a_at) / Fold change /veh TMPRSS4 (11747572_a_at) / RFU HAMP (11756126_x_at) / Fold change /veh HAMP (11756126_x_at) / RFU RNFT2 (11725882_a_at) / Fold change /veh RNFT2 (11725882_a_at) / RFU NR4A2 (11747474_a_at) / Fold change /veh NR4A2 (11747474_a_at) / RFU ABCC12 (11746883_a_at) / Fold change /veh ABCC12 (11746883_a_at) / RFU TMEM136 (11760407_x_at) / Fold change /veh TMEM136 (11760407_x_at) / RFU CLDN22 /// WWC2 (11732394_at) / Fold change /veh CLDN22 /// WWC2 (11732394_at) / RFU HLA-DPB1 (11760878_x_at) / Fold change /veh HLA-DPB1 (11760878_x_at) / RFU SPINT1 (11716480_a_at) / Fold change /veh SPINT1 (11716480_a_at) / RFU GAP43 (11754022_s_at) / Fold change /veh GAP43 (11754022_s_at) / RFU A4GNT (11735810_at) / Fold change /veh A4GNT (11735810_at) / RFU PRB3 (11715151_x_at) / Fold change /veh PRB3 (11715151_x_at) / RFU TUBB4B (11761932_at) / Fold change /veh TUBB4B (11761932_at) / RFU CAPN14 (11732068_a_at) / Fold change /veh CAPN14 (11732068_a_at) / RFU TMCC2 (11721928_a_at) / Fold change /veh TMCC2 (11721928_a_at) / RFU IRGQ (11745062_a_at) / Fold change /veh IRGQ (11745062_a_at) / RFU FAM174B (11720279_a_at) / Fold change /veh FAM174B (11720279_a_at) / RFU TMPRSS4 (11748680_a_at) / Fold change /veh TMPRSS4 (11748680_a_at) / RFU FAM212B (11763350_a_at) / Fold change /veh FAM212B (11763350_a_at) / RFU PLEKHG5 (11743358_a_at) / Fold change /veh PLEKHG5 (11743358_a_at) / RFU ZSCAN30 (11745921_a_at) / Fold change /veh ZSCAN30 (11745921_a_at) / RFU CMKLR1 (11741424_a_at) / Fold change /veh CMKLR1 (11741424_a_at) / RFU LOC101060620 /// MAPK8IP1 (11723275_at) / Fold change /veh LOC101060620 /// MAPK8IP1 (11723275_at) / RFU SPTSSB (11747773_x_at) / Fold change /veh SPTSSB (11747773_x_at) / RFU PRSS12 (11739890_at) / Fold change /veh PRSS12 (11739890_at) / RFU BIN1 (11741810_x_at) / Fold change /veh BIN1 (11741810_x_at) / RFU WNT11 (11732464_a_at) / Fold change /veh WNT11 (11732464_a_at) / RFU C10orf10 (11716521_a_at) / Fold change /veh C10orf10 (11716521_a_at) / RFU C5orf56 (11738089_at) / Fold change /veh C5orf56 (11738089_at) / RFU CYB561 (11721691_x_at) / Fold change /veh CYB561 (11721691_x_at) / RFU ANKRD19P (11752326_a_at) / Fold change /veh ANKRD19P (11752326_a_at) / RFU OR2T12 /// OR2T33 /// OR2T8 (11738714_s_at) / Fold change /veh OR2T12 /// OR2T33 /// OR2T8 (11738714_s_at) / RFU VCAN (11748164_a_at) / Fold change /veh VCAN (11748164_a_at) / RFU JSRP1 (11732532_at) / Fold change /veh JSRP1 (11732532_at) / RFU KRTAP10-11 (11738290_x_at) / Fold change /veh KRTAP10-11 (11738290_x_at) / RFU MYO3A (11730013_a_at) / Fold change /veh MYO3A (11730013_a_at) / RFU EBF3 (11725865_a_at) / Fold change /veh EBF3 (11725865_a_at) / RFU CAMK2N1 (11719241_x_at) / Fold change /veh CAMK2N1 (11719241_x_at) / RFU C5orf56 (11738088_a_at) / Fold change /veh C5orf56 (11738088_a_at) / RFU OLFML3 (11715873_a_at) / Fold change /veh OLFML3 (11715873_a_at) / RFU LOC100653217 /// NTM (11731650_a_at) / Fold change /veh LOC100653217 /// NTM (11731650_a_at) / RFU MAPK11 (11762145_a_at) / Fold change /veh MAPK11 (11762145_a_at) / RFU FIZ1 (11724087_x_at) / Fold change /veh FIZ1 (11724087_x_at) / RFU OASL (11726364_x_at) / Fold change /veh OASL (11726364_x_at) / RFU SOX15 (11748057_x_at) / Fold change /veh SOX15 (11748057_x_at) / RFU CD79A (11719716_a_at) / Fold change /veh CD79A (11719716_a_at) / RFU HIST1H1D (11736915_at) / Fold change /veh HIST1H1D (11736915_at) / RFU CASKIN2 (11723855_a_at) / Fold change /veh CASKIN2 (11723855_a_at) / RFU LOC730098 (11760151_x_at) / Fold change /veh LOC730098 (11760151_x_at) / RFU OR4N2 (11742367_at) / Fold change /veh OR4N2 (11742367_at) / RFU PRRT2 (11749266_a_at) / Fold change /veh PRRT2 (11749266_a_at) / RFU SNX32 (11753110_a_at) / Fold change /veh SNX32 (11753110_a_at) / RFU CDHR5 (11726645_a_at) / Fold change /veh CDHR5 (11726645_a_at) / RFU RCAN1 (11760418_a_at) / Fold change /veh RCAN1 (11760418_a_at) / RFU FAM167A (11723789_a_at) / Fold change /veh FAM167A (11723789_a_at) / RFU FAM26E (11764081_at) / Fold change /veh FAM26E (11764081_at) / RFU ISYNA1 (11749810_s_at) / Fold change /veh ISYNA1 (11749810_s_at) / RFU ACY1 (11761880_at) / Fold change /veh ACY1 (11761880_at) / RFU 11764098_at / Fold change /veh 11764098_at / RFU SAMD14 (11745864_x_at) / Fold change /veh SAMD14 (11745864_x_at) / RFU NPB (11741838_a_at) / Fold change /veh NPB (11741838_a_at) / RFU TMPRSS6 (11731388_a_at) / Fold change /veh TMPRSS6 (11731388_a_at) / RFU KRTAP10-2 (11738614_at) / Fold change /veh KRTAP10-2 (11738614_at) / RFU ARHGAP8 /// PRR5-ARHGAP8 (11727945_x_at) / Fold change /veh ARHGAP8 /// PRR5-ARHGAP8 (11727945_x_at) / RFU KRTAP5-7 /// NADSYN1 (11734609_at) / Fold change /veh KRTAP5-7 /// NADSYN1 (11734609_at) / RFU RASL12 (11751679_a_at) / Fold change /veh RASL12 (11751679_a_at) / RFU CDKN2B (11736163_a_at) / Fold change /veh CDKN2B (11736163_a_at) / RFU PRF1 (11729649_at) / Fold change /veh PRF1 (11729649_at) / RFU, ZNF638 /// ZNF638-IT1 / Fold change vs veh, ZNF638 /// ZNF638-IT1 / RFU, PANK3 / Fold change vs veh, PANK3 / RFU, SH3YL1 / Fold change vs veh, SH3YL1 / RFU, ZEB2 / Fold change vs veh, ZEB2 / RFU, NRIP1 / Fold change vs veh, NRIP1 / RFU, PTTG1IP / Fold change vs veh, PTTG1IP / RFU, CAPN2 / Fold change vs veh, CAPN2 / RFU, MED14 / Fold change vs veh, MED14 / RFU, SNORA58 / Fold change vs veh, SNORA58 / RFU, C1orf63 / Fold change vs veh, C1orf63 / RFU, LRRFIP1 / Fold change vs veh, LRRFIP1 / RFU, NDUFAF7 / Fold change vs veh, NDUFAF7 / RFU, SLC12A2 / Fold change vs veh, SLC12A2 / RFU, IBTK / Fold change vs veh, IBTK / RFU, ESF1 / Fold change vs veh, ESF1 / Fold change vs veh, TMEM50B / RFU, TAOK1 / Fold change vs veh, TAOK1 / RFU, ACBD3 / Fold change vs veh, ACBD3 / RFU, TMA16 / Fold change vs veh, TMA16 / RFU, RWDD3 / Fold change vs veh, RWDD3 / RFU, BCAT1 / Fold change vs veh, BCAT1 / RFU, EDEM3 / Fold change vs veh, EDEM3 / RFU, TMEM33 / Fold change vs veh, TMEM33 / RFU, WDR75 / Fold change vs veh, WDR75 / RFU, AHCTF1 / Fold change vs veh, AHCTF1 / RFU, TFRC / Fold change vs veh, TFRC / RFU, ZDHHC17 / Fold change vs veh, ZDHHC17 / RFU, NOM1 / Fold change vs veh, NOM1 / RFU, ARL8B / Fold change vs veh, ARL8B / RFU, ZBTB11 / Fold change vs veh, ZBTB11 / RFU, TAMM41 / Fold change vs veh, TAMM41 / RFU, KIAA1704 /// LOC100996395 / Fold change vs veh, KIAA1704 /// LOC100996395 / RFU, ING1 / Fold change vs veh, ING1 / RFU, TRMT61B / Fold change vs veh, TRMT61B / RFU, FUBP3 / Fold change vs veh, FUBP3 / RFU, TP53 / Fold change vs veh, TP53 / RFU, TNKS2 / Fold change vs veh, TNKS2 / RFU, ZFP14 / Fold change vs veh, ZFP14 / RFU, ACTR2 / Fold change vs veh, ACTR2 / RFU, PPP3R1 / Fold change vs veh, PPP3R1 / RFU, PIK3R1 / Fold change vs veh, PIK3R1 / RFU, HNRNPA1 / Fold change vs veh, HNRNPA1 / RFU, RNF170 / Fold change vs veh, RNF170 / RFU, ZNF28 / Fold change vs veh, ZNF28 / RFU, RNGTT / Fold change vs veh, RNGTT / RFU, OGT / Fold change vs veh, OGT / RFU, BRD1 / Fold change vs veh, BRD1 / RFU, MARS / Fold change vs veh, MARS / RFU, ZNF655 / Fold change vs veh, ZNF655 / RFU, FAHD1 / Fold change vs veh, FAHD1 / RFU, BDP1 / Fold change vs veh, BDP1 / RFU, LRRCC1 / Fold change vs veh, LRRCC1 / RFU, ARID1A / Fold change vs veh, ARID1A / RFU, ZNF146 / Fold change vs veh, ZNF146 / RFU, ZNF330 / Fold change vs veh, ZNF330 / RFU, GPN3 / Fold change vs veh, GPN3 / RFU, C9orf123 / Fold change vs veh, C9orf123 / RFU, N4BP2L2 / Fold change vs veh, N4BP2L2 / RFU, ARFIP1 / Fold change vs veh, ARFIP1 / RFU, FAM179B / Fold change vs veh, FAM179B / RFU, BCL10 / Fold change vs veh, BCL10 / RFU, UHRF1BP1L / Fold change vs veh, UHRF1BP1L / RFU, BET1 / Fold change vs veh, BET1 / RFU, CNOT2 / Fold change vs veh, CNOT2 / RFU, ZNF268 / Fold change vs veh, ZNF268 / Fold change vs veh, ZNF507 / RFU, DGCR2 / Fold change vs veh, DGCR2 / RFU, WDSUB1 / Fold change vs veh, WDSUB1 / Fold change vs veh, HSP90B1 /// MIR3652 / RFU, ADSS / Fold change vs veh, ADSS / RFU, GK / Fold change vs veh, GK / RFU, ZNF148 / Fold change vs veh, ZNF148 / RFU, TAF9 / Fold change vs veh, TAF9 / RFU, SLC1A5 / Fold change vs veh, SLC1A5 / RFU, SLMO2 / Fold change vs veh, SLMO2 / RFU, ABCC4 / Fold change vs veh, ABCC4 / RFU, LOC101060439 /// RAP1B / Fold change vs veh, LOC101060439 /// RAP1B / RFU, RFX7 / Fold change vs veh, RFX7 / RFU, GTPBP10 / Fold change vs veh, GTPBP10 / RFU, CNEP1R1 / Fold change vs veh, CNEP1R1 / RFU, BIVM-ERCC5 /// ERCC5 / Fold change vs veh, BIVM-ERCC5 /// ERCC5 / RFU, ILF3 / Fold change vs veh, ILF3 / RFU 11762660_at / Fold change /veh 11762660_at / RFU VCAN (11757783_s_at) / Fold change /veh VCAN (11757783_s_at) / RFU DDX43 (11728927_at) / Fold change /veh DDX43 (11728927_at) / RFU KRT8 (11758188_x_at) / Fold change /veh KRT8 (11758188_x_at) / RFU NKD1 (11759106_at) / Fold change /veh NKD1 (11759106_at) / RFU SRD5A1 (11742802_a_at) / Fold change /veh SRD5A1 (11742802_a_at) / RFU TPSAB1 /// TPSB2 (11721975_s_at) / Fold change /veh TPSAB1 /// TPSB2 (11721975_s_at) / RFU GSTM3 (11746129_a_at) / Fold change /veh GSTM3 (11746129_a_at) / RFU IL23R (11737362_x_at) / Fold change /veh IL23R (11737362_x_at) / RFU TMEM51 (11727254_a_at) / Fold change /veh TMEM51 (11727254_a_at) / RFU PIWIL2 (11732686_x_at) / Fold change /veh PIWIL2 (11732686_x_at) / RFU ORM1 (11744905_x_at) / Fold change /veh ORM1 (11744905_x_at) / RFU CCDC152 (11743942_at) / Fold change /veh CCDC152 (11743942_at) / RFU ECM1 (11717891_a_at) / Fold change /veh ECM1 (11717891_a_at) / RFU IL23R (11748794_a_at) / Fold change /veh IL23R (11748794_a_at) / RFU TNFAIP8L3 (11732012_x_at) / Fold change /veh TNFAIP8L3 (11732012_x_at) / RFU MBOAT4 (11741988_at) / Fold change /veh MBOAT4 (11741988_at) / RFU 11764193_at / Fold change /veh 11764193_at / RFU TMEM53 (11763286_at) / Fold change /veh TMEM53 (11763286_at) / RFU MAGEB2 (11727129_at) / Fold change /veh MAGEB2 (11727129_at) / RFU TMEM200A (11744735_a_at) / Fold change /veh TMEM200A (11744735_a_at) / RFU CCDC152 (11751479_a_at) / Fold change /veh CCDC152 (11751479_a_at) / RFU FAM211A (11726209_a_at) / Fold change /veh FAM211A (11726209_a_at) / RFU RGS16 (11746705_a_at) / Fold change /veh RGS16 (11746705_a_at) / RFU VCAN (11755009_s_at) / Fold change /veh VCAN (11755009_s_at) / RFU RHOB (11743442_s_at) / Fold change /veh RHOB (11743442_s_at) / RFU RGS16 (11720943_a_at) / Fold change /veh RGS16 (11720943_a_at) / RFU RGS16 (11720944_at) / Fold change /veh RGS16 (11720944_at) / RFU, VPS4B / Fold change vs veh, VPS4B / RFU, CREB1 / Fold change vs veh, CREB1 / RFU, DNAJC13 / Fold change vs veh, DNAJC13 / RFU, GNAQ / Fold change vs veh, GNAQ / RFU, CDK5R1 / Fold change vs veh, CDK5R1 / RFU, ZRANB3 / Fold change vs veh, ZRANB3 / RFU, CUL4A / Fold change vs veh, CUL4A / RFU, CCNY / Fold change vs veh, CCNY / RFU, UFL1 / Fold change vs veh, UFL1 / RFU, COG3 / Fold change vs veh, COG3 / RFU, DIAPH2 / Fold change vs veh, DIAPH2 / RFU, SKA2 / Fold change vs veh, SKA2 / RFU, AFF3 / Fold change vs veh, AFF3 / RFU, LMF1 / Fold change vs veh, LMF1 / RFU, IPO11 / Fold change vs veh, IPO11 / RFU, DFFB / Fold change vs veh, DFFB / RFU, FOXP1 / Fold change vs veh, FOXP1 / RFU, CARD8 / Fold change vs veh, CARD8 / RFU, STRN3 / Fold change vs veh, STRN3 / RFU, ADK / Fold change vs veh, ADK / RFU, RASSF2 / Fold change vs veh, RASSF2 / RFU, WIPF1 / Fold change vs veh, WIPF1 / RFU, LARP1B / Fold change vs veh, LARP1B / RFU, RASA1 / Fold change vs veh, RASA1 / RFU, RB1 / Fold change vs veh, RB1 / RFU, PPFIA1 / Fold change vs veh, PPFIA1 / RFU, MAT2A / Fold change vs veh, MAT2A / RFU, CCT5 / Fold change vs veh, CCT5 / RFU, WDR92 / Fold change vs veh, WDR92 / RFU, CUX1 / Fold change vs veh, CUX1 / RFU, TTC7A / Fold change vs veh, TTC7A / RFU, TMEM135 / Fold change vs veh, TMEM135 / RFU, DEPTOR / Fold change vs veh, DEPTOR / RFU, CPM / Fold change vs veh, CPM / RFU, DNAJB6 / Fold change vs veh, DNAJB6 / RFU, CACNA2D3 / Fold change vs veh, CACNA2D3 / RFU, DTX4 / Fold change vs veh, DTX4 / RFU, TFCP2 / Fold change vs veh, TFCP2 / RFU, GMCL1 /// GMCL1P1 / Fold change vs veh, GMCL1 /// GMCL1P1 / RFU, AEBP2 / Fold change vs veh, AEBP2 / RFU, SNHG1 /// SNORD22 /// SNORD25 /// SNORD26 /// SNORD27 /// SNORD28 /// SNORD29 /// SNORD31 / Fold change vs veh, SNHG1 /// SNORD22 /// SNORD25 /// SNORD26 /// SNORD27 /// SNORD28 /// SNORD29 /// SNORD31 / Fold change (Aza/veh), C12orf56 (ProbeSet 11735607_a_at) / Fold change (ACY-1035/veh), C12orf56 (ProbeSet 11735607_a_at) / Fold change (Aza/veh), FGFR1OP (ProbeSet 11751329_s_at) / Fold change (ACY-1035/veh), FGFR1OP (ProbeSet 11751329_s_at) / Fold change (Aza/veh), VPS36 (ProbeSet 11739960_a_at) / Fold change (ACY-1035/veh), VPS36 (ProbeSet 11739960_a_at) / RFU SYPL1 (11715823_x_at) / Fold change /veh SYPL1 (11715823_x_at) / RFU IGFBP7 (11715501_s_at) / Fold change /veh IGFBP7 (11715501_s_at) / RFU REEP3 (11722064_at) / Fold change /veh REEP3 (11722064_at) / RFU IGLL1 (11728026_x_at) / Fold change /veh IGLL1 (11728026_x_at): dose or concentration left out as unconfirmed
Settings: MV-4-11 cells, 48 hours

SMILES: Nc1ncn([C@@H]2O[C@H](CO)[C@@H](O)[C@H]2O)c(=O)n1 [azacitidine]
- Fold change /veh GIMAP4 (11747438_a_at): 1.07
